Results published in US12077604B2, “Deuterated compounds, compositions, and methods for treating cancers associated with ETBR activation” (ENB Therapeutics Inc., priority 2018, dated 2024).
“Also recorded” adds a separate entry of the source.

Columns and labels:
ETA (h) = target: T1, ETA (h) (Homo sapiens, UniProt P25101); assay: ETA (h) cellular antagonist effect; format: cell-based
T1 sequence (P25101 21-427): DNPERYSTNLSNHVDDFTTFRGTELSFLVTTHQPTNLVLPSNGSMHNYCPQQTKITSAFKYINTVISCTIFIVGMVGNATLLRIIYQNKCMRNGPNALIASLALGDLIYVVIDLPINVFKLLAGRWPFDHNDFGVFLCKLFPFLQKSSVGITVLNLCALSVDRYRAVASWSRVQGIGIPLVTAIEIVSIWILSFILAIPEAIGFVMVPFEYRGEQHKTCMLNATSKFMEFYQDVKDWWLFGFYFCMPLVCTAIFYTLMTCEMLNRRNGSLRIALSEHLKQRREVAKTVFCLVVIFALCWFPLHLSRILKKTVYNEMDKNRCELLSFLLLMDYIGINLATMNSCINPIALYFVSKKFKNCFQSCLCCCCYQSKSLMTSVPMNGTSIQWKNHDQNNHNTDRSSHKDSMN
Experimental: FIGS. 5A and 5B show determination of ETA (h) inhibitory effect for A) BQ-788 and B) BQ-788-B, a specifically deuterated ETRB antagonist. Cellular agonist effect was calculated as a % of control response to a known reference agonist for ETA (h), and cellular antagonist effect was calculated as a % inhibition of control reference agonist response for ETA.
Cellular agonist effect was calculated as a % of control response to a known reference agonist for ETA (h), and cellular antagonist effect was calculated as a % inhibition of control reference agonist response for ETA.

ETB (h) = target: T2, ETB (h) (Homo sapiens, UniProt P24530); assay: ETB (h) cellular antagonist effect; format: cell-based
T2 sequence (P24530 27-442): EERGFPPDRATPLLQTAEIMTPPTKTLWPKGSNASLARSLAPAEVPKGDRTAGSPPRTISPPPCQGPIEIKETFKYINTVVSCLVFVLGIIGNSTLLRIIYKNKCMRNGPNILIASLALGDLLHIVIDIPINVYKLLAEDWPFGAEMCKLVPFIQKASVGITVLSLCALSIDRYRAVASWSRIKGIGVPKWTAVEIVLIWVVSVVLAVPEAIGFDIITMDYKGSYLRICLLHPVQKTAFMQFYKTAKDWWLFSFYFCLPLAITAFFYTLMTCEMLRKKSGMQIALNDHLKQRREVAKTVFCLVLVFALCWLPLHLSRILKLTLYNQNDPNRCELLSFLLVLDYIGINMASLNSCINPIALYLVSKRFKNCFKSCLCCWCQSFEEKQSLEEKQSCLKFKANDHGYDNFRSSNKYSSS
Experimental: (§1) Cellular agonist effect was calculated as a % of control response to a known reference agonist for ETB (h), and cellular antagonist effect was calculated as a % inhibition of control reference agonist response for ETB.
as §1, with “Determination of ETBR inhibitory effect for specifically deuterated ETRB antagonists. […] Cellular” for “Cellular”

CXCR4 (h) = target: T3, CXCR4 (h) (Homo sapiens, UniProt P61073); assay: CXCR4 (h) cellular antagonist effect, impedance by dielectric spectroscopy, stimulated with 1 nM SDF-1α; format: cell-based; conditions: recombinant human CXCR4 in CHO cells, 28° C.
T3 construct: expressed in transfected cells; host or cells: CHO cells
Experimental: FIGS. 4A and 4B show determination of CXCR4 (h) inhibitory effect for, A) BQ-788 and B) BQ-788-B, a specifically deuterated ETRB antagonist (i.e., “Compound 1”). Cellular agonist effect was calculated as a % of control response to a known reference agonist for CXCR4 (h), and cellular antagonist effect was calculated as a % inhibition of control reference agonist response for CXCR4.
Determination of CXCR4 inhibitory effect. The inhibitory effect on CXCR4 (h) was determined for BQ-788 (FIG. 4A), and BQ-788 (FIG. 4B) BQ-788-B (i.e., “Compound 1”). Cellular agonist effect was calculated as a % of control response to a known reference agonist for CXCR4 (h), and cellular antagonist effect was calculated as a % inhibition of control reference agonist response for CXCR4. Recombinant human CXCR4 was expressed in CHO cells, and stimulated with 1 nM SDF-1α and incubated at 28° C. Dielectric spectroscopy was used to measure impedance of the cells.

ETBR = assay: Plasma ET-1 ELISA after IV infusion, indirect measure of ETBR engagement; format: in vivo; conditions: rats, 250 μg/kg IV infusion
Experimental: Briefly, rats (N=4 animals per timepoint) were administered either BQ-788 or the deuterated form, BQ-788-B at a dose of 250 μg/kg via IV infusion. Plasma samples were collected at various time points and ET-1 ELISA performed. BQ788 and BQ788-B are peptide drugs that are rapidly degraded in plasma and thus drug levels are difficult to detect directly. […] As such, plasma levels of ET-1 are commonly used as an indirect measure of BQ-788 biologic activity.

T3 sequence (P61073 whole entry): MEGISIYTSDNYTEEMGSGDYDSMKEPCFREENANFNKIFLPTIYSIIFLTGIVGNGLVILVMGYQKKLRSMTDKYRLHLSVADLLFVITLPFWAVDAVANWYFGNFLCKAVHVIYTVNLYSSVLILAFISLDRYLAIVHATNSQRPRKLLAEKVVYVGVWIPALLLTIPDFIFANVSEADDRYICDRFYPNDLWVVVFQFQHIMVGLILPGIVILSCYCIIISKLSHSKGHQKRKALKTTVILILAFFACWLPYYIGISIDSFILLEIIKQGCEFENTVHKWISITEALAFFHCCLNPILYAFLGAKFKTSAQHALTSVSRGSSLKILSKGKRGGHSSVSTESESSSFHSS

Compound	IC50, inhibition of control reference agonist response for ETA (h) (ETA (h))	Kd (ETB (h))	IC50 (CXCR4 (h); read-out: IC50, inhibition of control reference agonist response for CXCR4 (h))	plasma ET-1 response: prolonged peak out to (ETBR; ET-1 ELISA)	biologic activity in vivo by plasma ET-1 (duration and amplitude of response) (ETBR; compared with non-deuterated BQ-788)	IC50 (ETB (h); read-out: IC50, inhibition of control reference agonist response for ETB (h))	IC50, inhibition of control reference agonist response for CXCR4 (h) (CXCR4 (h))
CCCC[C@@H](NC(=O)[C@@H](Cc1cn(C(=O)OC)c2ccccc12)NC(=O)[C@H](CC(C)(C)C)NC(=O)N1[C@H](C)CCC[C@@H]1C)C(=O)O [BQ-788]	not calculable	13 nM	> 1000 nM				
[2H]C[C@@H]1CCC[C@H](C[2H])N1C(=O)N[C@@H](CC(C)(C)C)C(=O)N[C@H](Cc1cn(C(=O)OC)c2ccccc12)C(=O)N[C@H](CCCC)C(=O)O [BQ-788-B]	not calculable			about 3 hours	enhanced duration and amplitude of response relative to the undeuterated form; also recorded: enhanced biological activity relative to BQ-788	96 nM	not calculable
